Laboratory results: US20260273072A1, “NOVEL PLK1 DEGRADATION INDUCING COMPOUND” (UPPTHERA, INC., priority 2023, published 2026)

How the values were obtained:
Format in all cases: cell-based
NCI-H526 cell line = assay: Cell viability assay for NCI-H526 cell line (EZ-Cytox); conditions: Homo sapiens, NCI-H526, 120 h; H526 cells, 5 days, 3000 nM to 0.46 nM
In short: (§1)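 IC50 values are binned (A: <30 nM, B: <50 nM, C: <100 nM, D: <200 nM, E: <400 nM) from EZ-Cytox read-outs. Cells were exposed to compound for 5 days, then shaken 3 min and absorbance taken at […].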

MRC-5 cell line = assay: Cell viability assay for MRC-5 cell line (EZ-Cytox); conditions: Homo sapiens, MRC5, 120 h; MRC-5 normal cell line, 5 days, 10000 nM to 1.52 nM; read-out: Activity: IC50 value, cell viability, MRC-5 cell line (Exemplary Compounds)
Protocol: 4. Cell Viability Assay for MRC-5 Cell Line
(1) Culture of MRC-5 Cell Line
The MRC-5 cell line was purchased from KCLB. Passage of cultured cells was maintained within P15.
(2) Treatment of Compounds of the Present Invention
Then, it was cultured in 37° C. CO2 incubator (Thermo Fisher Scientific) for 5 days.
(3) Cytotoxicity Experiment
CO2 incubator for 4 hours.

PLK1 = target: T1, PLK1 (Homo sapiens, UniProt P53350); assay: Luciferase assay for PLK1 in HeLa LgBit (Plk1-HiBit KI) cell line; conditions: 300 nM compound, luminescence after 9 hours
T1 construct: endogenous in cells; host or cells: HeLa LgBit (Plk1-HiBit KI): HeLa stably expressing LgBit, with a CRISPR/Cas9 knock-in of HiBit at the endogenous PLK1 locus
T1 sequence (P53350 whole entry): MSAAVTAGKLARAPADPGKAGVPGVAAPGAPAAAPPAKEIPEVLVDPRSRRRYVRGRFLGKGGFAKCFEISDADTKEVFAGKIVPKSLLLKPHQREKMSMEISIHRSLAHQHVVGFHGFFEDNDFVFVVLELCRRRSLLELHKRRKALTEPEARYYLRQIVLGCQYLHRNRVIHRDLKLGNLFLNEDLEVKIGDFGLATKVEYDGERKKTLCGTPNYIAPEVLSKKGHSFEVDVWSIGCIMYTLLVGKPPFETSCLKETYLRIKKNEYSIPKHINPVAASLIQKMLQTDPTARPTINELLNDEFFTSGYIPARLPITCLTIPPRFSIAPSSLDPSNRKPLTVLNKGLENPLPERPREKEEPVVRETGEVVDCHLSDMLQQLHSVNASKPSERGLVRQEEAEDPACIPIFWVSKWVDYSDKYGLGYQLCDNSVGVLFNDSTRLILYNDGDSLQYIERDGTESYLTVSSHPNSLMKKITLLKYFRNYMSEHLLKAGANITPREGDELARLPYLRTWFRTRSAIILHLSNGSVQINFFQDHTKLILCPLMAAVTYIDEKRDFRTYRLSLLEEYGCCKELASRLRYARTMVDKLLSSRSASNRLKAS
In short: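 Compounds (300 nM) were added with Endurazine to thymidine-synchronised cells (2 mM, 24 h block, then release and 18 h culture), and luminescence at 470-480 nm was followed live. Cells: HeLa stably expressing LgBit, HiBit knocked into native PLK1 C-terminus. Value: luminescence ratio versus DMSO control.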

NCI-H69 cell line = assay: Cell viability assay for NCI-H69 cell line (EZ-Cytox); conditions: Homo sapiens, NCI-H69, 120 h; H69 cells, 5 days, 3000 nM to 0.46 nM
In short: as §1

SMILES	IC50 (NCI-H526 cell line)	IC50 (MRC-5 cell line)	Activity: ratio of the luminescence value of compound treatment group to DMSO treatment group (PLK1)	IC50 (NCI-H69 cell line)
COc1cc(C(=O)NC2CCN(CCN3CCN(c4cc(Cl)c(NC5CCC(=O)NC5=O)cc4F)CC3)CC2)c(F)cc1Nc1ncc2c(n1)N(C1CCCC1)CC(F)(F)C(=O)N2C (stereo not shown) [Compound 73, N(1-(2-(4-(5-chloro-4-((2,6-dioxopiperidin-3-yl)amino)-2-fluorophenyl)piperazin-1-yl)ethyl)piperidin-4-yl)-4-((9-cyclopentyl-7,7-difluoro-5-methyl-6-oxo-6,7,8,9-tetrahydro-5H-pyrimido[4,5-b][1,4]diazepin-2-yl)amino)-2-fluoro-5-methoxybenzamide]	< 0.05 µM	> 10 µM	++ (++: <0.5)	< 0.1 µM
COc1cc(C(=O)NC2CCC(N(C)CC3CCN(c4cnc(C5CCC(=O)NC5=O)cc4C)CC3)CC2)ccc1Nc1ncc2c(n1)N(C)CC(F)(F)C(=O)N2C (stereo not shown) [Compound 12, 4-((7,7-difluoro-5,9-dimethyl-6-oxo-6,7,8,9-tetrahydro-5H-pyrimido[4,5-b][1,4]diazepin-2-yl)amino)-N-((1r,4r)-4-(((1-(6-(2,6-dioxopiperidin-3-yl)-4-methylpyridin-3-yl)piperidin-4-yl)methyl)(methyl)amino)cyclohexyl)-3-methoxybenzamide]	< 0.2 µM	> 10 µM	+++ (+++: <0.3)	< 0.2 µM
COc1cc(C(=O)NC2CCC(N(C)CC3CCN(c4ccc(C5CCC(=O)NC5=O)cc4C)CC3)CC2)ccc1Nc1ncc2c(n1)N(C1CCCC1)CC(F)(F)C(=O)N2C (stereo not shown) [Compound 6, 4-((9-cyclopentyl-7,7-difluoro-5-methyl-6-oxo-6,7,8,9-tetrahydro-5H-pyrimido[4,5-b][1,4]diazepin-2-yl)amino)-N-((1r,4r)-4-(((1-(4-(2,6-dioxopiperidin-3-yl)-2-methylphenyl)piperidin-4-yl)methyl)(methyl)amino)cyclohexyl)-3-methoxybenzamide]	< 0.1 µM	> 10 µM	+++ (+++: <0.3)	< 0.05 µM
COc1cc(C(=O)NN2CCC(CCN3CCN(c4cc(OC)c(C5CCC(=O)NC5=O)cc4F)CC3)CC2)ccc1Nc1ncc2c(n1)N(C(C)C)CC(F)(F)C(=O)N2C (stereo not shown) [Compound 7, 4-((7,7-difluoro-9-isopropyl-5-methyl-6-oxo-6,7,8,9-tetrahydro-5H-pyrimido[4,5-b][1,4]diazepin-2-yl)amino)-N-(4-(2-(4-(4-(2,6-dioxopiperidin-3-yl)-2-fluoro-5-methoxyphenyl)piperazin-1-yl)ethyl)piperidin-1-yl)-3-methoxybenzamide]	< 0.05 µM	> 10 µM	++ (++: <0.5)	< 0.05 µM
COc1cc(C(=O)NN2CCC(CCN3CCN(c4ccc(N(C)C5CCC(=O)NC5=O)cc4F)CC3)CC2)ccc1Nc1ncc2c(n1)N(C(C)C)CC(F)(F)C(=O)N2C (stereo not shown) [Compound 38, 4-((7,7-difluoro-9-isopropyl-5-methyl-6-oxo-6,7,8,9-tetrahydro-5H-pyrimido[4,5-b][1,4]diazepin-2-yl)amino)-N-(4-(2-(4-(4-((2,6-dioxopiperidin-3-yl)(methyl)amino)-2-fluorophenyl)piperazin-1-yl)ethyl)piperidin-1-yl)-3-methoxybenzamide]	< 0.03 µM	> 10 µM	+++ (+++: <0.3)	< 0.03 µM
COc1cc(C(=O)NC2CCN(CCN3CCN(c4cc(OC)c(NC5CCC(=O)NC5=O)cc4F)CC3)CC2)ccc1Nc1ncc2c(n1)N(C1CCCC1)CC(F)(F)C(=O)N2C (stereo not shown) [Compound 48, 4-((9-cyclopentyl-7,7-difluoro-5-methyl-6-oxo-6,7,8,9-tetrahydro-5H-pyrimido[4,5-b][1,4]diazepin-2-yl)amino)-N-(1-(2-(4-(4-((2,6-dioxopiperidin-3-yl)amino)-2-fluoro-5-methoxyphenyl)piperazin-1-yl)ethyl)piperidin-4-yl)-3-methoxybenzamide]	< 0.03 µM	> 10 µM	++ (++: <0.5)	< 0.05 µM
COc1cc(C(=O)N[C@H]2CC[C@H](CN(C)C3CCN(c4ccc(C5CCC(=O)NC5=O)nc4)CC3)CC2)ccc1Nc1ncc2c(n1)N(C1CCCC1)CC(F)(F)C(=O)N2C (stereo partly shown) [Compound 9, 4-((9-cyclopentyl-7,7-difluoro-5-methyl-6-oxo-6,7,8,9-tetrahydro-5H-pyrimido[4,5-b][1,4]diazepin-2-yl)amino)-N-((1r,4r)-4-(((1-(6-(2,6-dioxopiperidin-3-yl)pyridin-3-yl)piperidin-4-yl)(methyl)amino)methyl)cyclohexyl)-3-methoxybenzamide]	< 0.03 µM	> 10 µM	++ (++: <0.5)	< 0.03 µM
COc1cc(C(=O)NC2CC3(CCN(CC4CCN(c5ccc(C6CCC(=O)NC6=O)cc5F)CC4)CC3)C2)ccc1Nc1ncc2c(n1)N(C)CC(F)(F)C(=O)N2C (stereo not shown) [Compound 5, 4-((7,7-difluoro-5,9-dimethyl-6-oxo-6,7,8,9-tetrahydro-5H-pyrimido[4,5-b][1,4]diazepin-2-yl)amino)-N-(7-((1-(4-(2,6-dioxopiperidin-3-yl)-2-fluorophenyl)piperidin-4-yl)methyl)-7-azaspiro[3.5]nonan-2-yl)-3-methoxybenzamide]	< 0.1 µM	> 10 µM	++ (++: <0.5)	< 0.1 µM
COc1cc(C(=O)NN2CCC(CCN3CCN(c4ccc(NC5CCC(=O)NC5=O)c(F)c4)CC3)CC2)ccc1Nc1ncc2c(n1)N(C(C)C)CC(F)(F)C(=O)N2C (stereo not shown) [Compound 33, 4-((7,7-difluoro-9-isopropyl-5-methyl-6-oxo-6,7,8,9-tetrahydro-5H-pyrimido[4,5-b][1,4]diazepin-2-yl)amino)-N-(4-(2-(4-(4-((2,6-dioxopiperidin-3-yl)amino)-3-fluorophenyl)piperazin-1-yl)ethyl)piperidin-1-yl)-3-methoxybenzamide]	< 0.03 µM	> 10 µM	++ (++: <0.5)	< 0.03 µM
COc1cc(C(=O)NC2CCC(N(C)CC3CCN(c4ccc(NC5CCC(=O)NC5=O)cc4F)CC3)CC2)ccc1Nc1ncc2c(n1)N(C(C)C)CC(F)(F)C(=O)N2C (stereo not shown) [Compound 26, 4-((7,7-difluoro-9-isopropyl-5-methyl-6-oxo-6,7,8,9-tetrahydro-5H-pyrimido[4,5-b][1,4]diazepin-2-yl)amino)-N-((1r,4r)-4-(((1-(4-((2,6-dioxopiperidin-3-yl)amino)-2-fluorophenyl)piperidin-4-yl)methyl)(methyl)amino)cyclohexyl)-3-methoxybenzamide]	< 0.03 µM	> 10 µM	++ (++: <0.5)	< 0.03 µM
COc1cc(C(=O)NC2CCC(N(C)CC3CCN(c4cnc(C5CCC(=O)NC5=O)cc4C)CC3)CC2)ccc1Nc1ncc2c(n1)N(C(C)C)CC(F)(F)C(=O)N2C (stereo not shown) [Compound 15, 4-((7,7-difluoro-9-isopropyl-5-methyl-6-oxo-6,7,8,9-tetrahydro-5H-pyrimido[4,5-b][1,4]diazepin-2-yl)amino)-N-((1r,4r)-4-(((1-(6-(2,6-dioxopiperidin-3-yl)-4-methylpyridin-3-yl)piperidin-4-yl)methyl)(methyl)amino)cyclohexyl)-3-methoxybenzamide]	< 0.03 µM	> 10 µM	+++ (+++: <0.3)	< 0.03 µM
COc1cc(C(=O)NC2CCN(C3CN(c4ccc(C5CCC(=O)NC5=O)cc4F)C3)CC2)ccc1Nc1ncc2c(n1)N(C(C)C)CC(F)(F)C(=O)N2C (stereo not shown) [Compound 3, 4-((7,7-difluoro-9-isopropyl-5-methyl-6-oxo-6,7,8,9-tetrahydro-5H-pyrimido[4,5-b][1,4]diazepin-2-yl)amino)-N-(1-(1-(4-(2,6-dioxopiperidin-3-yl)-2-fluorophenyl)azetidin-3-yl)piperidin-4-yl)-3-methoxybenzamide]	< 0.05 µM	> 10 µM	++ (++: <0.5)	< 0.1 µM
COc1cc(C(=O)N[C@H]2[C@@H]3CN(CCN4CCN(c5ccc(NC6CCC(=O)NC6=O)cc5)CC4)C[C@@H]32)ccc1Nc1ncc2c(n1)N(C(C)C)CC(F)(F)C(=O)N2C (stereo partly drawn) [Compound 23, 4-((7,7-difluoro-9-isopropyl-5-methyl-6-oxo-6,7,8,9-tetrahydro-5H-pyrimido[4,5-b][1,4]diazepin-2-yl)amino)-N-((1R,5S,6s)-3-(2-(4-(4-((2,6-dioxopiperidin-3-yl)amino)phenyl)piperazin-1-yl)ethyl)-3-azabicyclo[3.1.0]hexan-6-yl)-3-methoxybenzamide]	< 0.03 µM	> 10 µM	++ (++: <0.5)	< 0.05 µM
